Structures are written as SMILES.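 Cultured in 96-well plates, cells were exposed to test compound for 48 hours across five concentrations. GI50: concentration for 50% inhibition of growth. TGI: concentration producing complete growth inhibition.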

Data on 28 molecules can be found in PubChem BioAssay (NCI).

The first experiment deals with IGROV1 ovarian. Description: NCI tumour cell line growth inhibition, 48 h.
Consider `COc1ccc2n[se]nc2c1`, for which the TGI is more than 100 µM.

`Cn1cc(C(=O)NCCC(=N)N)cc1NC(=O)C1=[N+](C)C=C(NC(=O)c2cccc(C(=O)NC3=CC(C(=O)Nc4cc(C(=O)NCCC(=N)N)cn4C)=[N+](C)C3)c2)C1` yielded a TGI of more than 100 µM.

The next experiment deals with UO-31 renal. As to the kind of experiment: NCI tumour cell line growth inhibition, 48 h.
As to `CCN(CC)c1c(C(=O)/C=C/c2ccc(OC)cc2)c(-c2ccccc2)nn(C)c1=O`, the TGI is more than 100 µM.

The molecule `CN1C(=Nc2ccccc2)SC1=Nc1ccccc1` gave a TGI of more than 100 µM.

`Oc1ccccc1/C=C/c1csnn1` came in with a TGI of more than 100 µM.

Take `CC(=O)CC(=O)OC1CC(C)CCC1C(C)C` (stereo not given): the TGI was more than 100 µM.

For `CP1(=O)CCCCC1`, the TGI is more than 100 µM.

In turn, `Cc1ccc(S(=O)(=O)OC2CSS(=O)CC2OS(=O)(=O)c2ccc(C)cc2)cc1` (stereo not given) showed a TGI of 33 µM.

In the case of `COc1cc2c(cc1C)NC(=O)/C2=C/c1ccccn1`, the GI50 is 12.2 µM and the TGI was more than 100 µM.

Turning to `O=[N+]([O-])c1cc(C(F)(F)F)cc([N+](=O)[O-])c1CCl`, the TGI amounted to 20.6 µM.

`Nc1ccnc(=O)[nH]1` returned a TGI of more than 100 µM.

On to `COC(=O)/C(C)=C(/CCC1(C)OCCO1)O[Si](C)(C)C`, for which the TGI was more than 100 µM.

As to `CCOC(=O)N1CCN(C=S)CC1`, the TGI is more than 100 µM.

The molecule `CCc1cc(C(=O)OC)cn1C(=N)c1ccc(Cl)cc1` gave a TGI of more than 100 µM.

Take `Cc1cc(=O)n(-c2ccccc2C)c(C)n1`: the TGI is more than 100 µM.

In the case of `Oc1c(C(Nc2cccc3cccnc23)c2ccccc2)ccc2cccnc12` (stereo not given), the TGI was more than 100 µM.

Molecule `COc1ccc(Br)c(N/N=C2\CCCNC2=O)c1` gave a TGI of more than 100 µM.

`COc1cc2c(c(OC)c1OC)-c1ccc(SC)c(=O)cc1C(CO)C2` (stereo not given): the GI50 was less than 0.01 µM and the TGI was more than 100 µM.

`Cc1ccc2nc(NC(=O)C(=O)C(C#N)c3nc4ccccc4s3)sc2c1` (stereo not given) came in with a TGI of more than 100 µM.

For the molecule `CC(C)C1CC[C@@H](C)C[C@@]1(O)CC(N)=O` (stereo not given in full), the TGI is more than 100 µM.

Consider `COc1ccc(-c2c[nH]c(C(=O)O)c2-c2cc(OC)c(OC)c(OC)c2)cc1`, for which the GI50 was 5.02 µM and the TGI was more than 100 µM.

Take `C=C(C)C(=O)O[C@H]1CC(=C)[C@@H]2C[C@H](O)[C@](O)(CCl)[C@@H]2[C@H]2OC(=O)C(=C)[C@@H]21`: the GI50 is 2.73 µM and the TGI is 9.27 µM.

`COc1cnc2c(c1)C(=O)c1c-2n(CCCn2ccnc2)c(=O)c2cc(F)ccc12`: the GI50 is less than 0.01 µM and the TGI was determined as 0.147 µM.

Consider `O=C([CH-]C(=O)c1ccccc1)c1ccccc1.O=C([CH-]C(=O)c1ccccc1)c1ccccc1.[La+3].[OH-].[OH3+]`, for which the GI50 was 6.62 µM and the TGI was found to be 31.6 µM.

With `CCC[CH2][Sn]1([CH2]CCC)[O]C(=O)c2cccnc2[O]1`, the GI50 is 7.32 µM and the TGI is 19.9 µM.

`CCOc1ccccc1N1C(=O)C(=O)C(c2nc3ccccc3o2)C(=O)C1=O` displayed a TGI of more than 100 µM.

For the molecule `C=C1C(=O)O[C@H]2[C@H]1CC/C(COC(=O)NCc1cn(C)c3ccccc13)=C\CC[C@@]1(C)O[C@@H]21`, the GI50 was 1.34 µM and the TGI turned out to be 2.62 µM.

With `CCS(CC)(CC)CC1CCCC2=CCC(P(=O)(c3ccccc3)c3ccccc3)CC21` (stereo not given), the TGI was determined as 20.3 µM.

In turn, `COc1ccc2n[se]nc2c1` gave a TGI of more than 100 µM.

As to `Cn1cc(C(=O)NCCC(=N)N)cc1NC(=O)C1=[N+](C)C=C(NC(=O)c2cccc(C(=O)NC3=CC(C(=O)Nc4cc(C(=O)NCCC(=N)N)cn4C)=[N+](C)C3)c2)C1`, the TGI was more than 100 µM.

Another experiment relates to OVCAR-8 ovarian. As to the kind of experiment: NCI tumour cell line growth inhibition, 48 h.
As to `CCN(CC)c1c(C(=O)/C=C/c2ccc(OC)cc2)c(-c2ccccc2)nn(C)c1=O`, the TGI was more than 100 µM.

In turn, `CN1C(=Nc2ccccc2)SC1=Nc1ccccc1` registered a TGI of more than 100 µM.

As for `Oc1ccccc1/C=C/c1csnn1`, the TGI is more than 100 µM.

In turn, `CC(=O)CC(=O)OC1CC(C)CCC1C(C)C` (stereo not given) came in with a TGI of more than 100 µM.

Consider `CP1(=O)CCCCC1`, for which the TGI was more than 100 µM.

Take `Cc1ccc(S(=O)(=O)OC2CSS(=O)CC2OS(=O)(=O)c2ccc(C)cc2)cc1` (stereo not given): the TGI was 22.5 µM.

In the case of `COc1cc2c(cc1C)NC(=O)/C2=C/c1ccccn1`, the GI50 was 3.14 µM and the TGI is more than 100 µM.

The molecule `O=[N+]([O-])c1cc(C(F)(F)F)cc([N+](=O)[O-])c1CCl` registered a TGI of 4.91 µM.

`Nc1ccnc(=O)[nH]1` had a TGI of more than 100 µM.

With `COC(=O)/C(C)=C(/CCC1(C)OCCO1)O[Si](C)(C)C`, the TGI is more than 100 µM.

In turn, `CCOC(=O)N1CCN(C=S)CC1` displayed a TGI of more than 100 µM.

`CCc1cc(C(=O)OC)cn1C(=N)c1ccc(Cl)cc1` had a TGI of more than 100 µM.

Consider `Cc1cc(=O)n(-c2ccccc2C)c(C)n1`, for which the TGI was more than 100 µM.

For `Oc1c(C(Nc2cccc3cccnc23)c2ccccc2)ccc2cccnc12` (stereo not given), the TGI turned out to be 21.3 µM.

As for `COc1ccc(Br)c(N/N=C2\CCCNC2=O)c1`, the TGI is more than 100 µM.

`COc1cc2c(c(OC)c1OC)-c1ccc(SC)c(=O)cc1C(CO)C2` (stereo not given): the GI50 is less than 0.01 µM.

`Cc1ccc2nc(NC(=O)C(=O)C(C#N)c3nc4ccccc4s3)sc2c1` (stereo not given) displayed a TGI of more than 100 µM.

`CC(C)C1CC[C@@H](C)C[C@@]1(O)CC(N)=O` (stereo not given in full) gave a TGI of more than 100 µM.

As for `COc1ccc(-c2c[nH]c(C(=O)O)c2-c2cc(OC)c(OC)c(OC)c2)cc1`, the GI50 is 5.44 µM and the TGI is more than 100 µM.

With `C=C(C)C(=O)O[C@H]1CC(=C)[C@@H]2C[C@H](O)[C@](O)(CCl)[C@@H]2[C@H]2OC(=O)C(=C)[C@@H]21`, the GI50 is 3.24 µM and the TGI was determined as 12.8 µM.

`COc1cnc2c(c1)C(=O)c1c-2n(CCCn2ccnc2)c(=O)c2cc(F)ccc12`: the GI50 is 0.0151 µM and the TGI was found to be 13.9 µM.

Take `O=C([CH-]C(=O)c1ccccc1)c1ccccc1.O=C([CH-]C(=O)c1ccccc1)c1ccccc1.[La+3].[OH-].[OH3+]`: the GI50 was 6.67 µM and the TGI was determined as 65.4 µM.
